{
  "source": "patent US20130295199A1",
  "about": "“Composition Comprising OPC and Omega-3 for Preventing and/or Inhibiting the Development of Diabetic Retinopathy” (VISIOTACT PHARMA, priority 2011, published 2013)",
  "key": {"[1]": {"tested_on": "Type-1 streptozotocin-induced diabetic Sprague-Dawley rats", "test": "Streptozotocin-induced diabetic rat model: body weight, blood glucose, glycated hemoglobin", "assay_type": "in vivo", "conditions": "STZ-induced diabetic Sprague-Dawley rats, after 90 days of treatment, n=20/group, mean +/- SEM", "procedure": "(§1) Sprague-Dawley rats (Harlan), weighing 75-100 g, were assigned to one of eight subgroups, based on non-diabetic, untreated diabetic and treated diabetic groups as indicated here-under. Sprague-Dawley rats were housed in a constant environment (room temperature (22.0±1.5)° C., room humidity (55±5) %) with a normal light-dark cycle (12-hour light, 12-hour dark). Diabetes was induced by intraperitoneal streptozotocin injection (75 mg/kg STZ, 10 mM citrate buffer, pH 4.5). Non-diabetic control animals received an equivalent dose of vehicle (citrate buffer at pH 4.6).\nTo analyse the effect of the composition of the invention, animals are fed as followed:\nDiabetic and non-diabetic groups were examined biweekly to follow blood glucose and the body weight was recorded. 50 μL of whole blood was collected in potassium-EDTA tubes (Becton Dickinson) for subsequent analysis of glycated hemoglobin (GHb)."}, "[2]": {"tested_on": "advanced glycation end product (AGE), retinal carboxymethyl-lysine", "test": "Retinal carboxymethyl-lysine measurement (AGE-product quantification), ELISA", "assay_type": "in vivo, rat", "conditions": "STZ-induced diabetic Sprague-Dawley rats, after 90 days of treatment, n=20/group, mean +/- SEM", "procedure": "as §1\nRetinal samples were exposed to ultrasonic disruption in RIPA buffer. After tissue debris suppression by centrifugation, protein level of samples was measured using bicinchoninic acid (BCA) protein assay kit (Pierce). Sample (concentration: 50 μg/mL) or advanced glycation end product (AGE)-BSA standard (0 to 200 μM) diluted in 0.05% Tween 20 and 0.2% BSA in 75 mM PBS were placed in duplicate into 96-wells plate (Nunc C96 Maxisorp; eBioscience) coated with solid-phase antigen (1 μg/mL AGE-BSA). Anti-CML rabbit polyclonal antibody was added for 2 hours at room temperature and then washed in 0.2 mM KH2PO4, 1.4 mM K2HPO4, 3 mM NaCl, 0.45 μM sorbic acid potassium, and 0.01% Tween-20 buffer. […] Absorbance was measured at 450 nm on a microplate reader (Biorad)."}, "[3]": {"tested_on": "retinal acellular capillaries", "test": "Quantitation of acellular capillaries in retina of diabetic animals", "assay_type": "in vivo, rat", "conditions": "FIG. 5, result in words", "procedure": "as §1\nEvaluation of the retinal vasculature is done following adenosine diphosphatase (ADPase) activity in whole embedded retina. After overnight fixation in 2% PFA in 0.1 M cacodylate buffer at 4° C., an incision was made 2 mm posterior to the ora serrata, and the anterior segment of the eye was removed. […] The ADPase-incubated retina was washed in 0.1 M cacodylate buffer with 5% sucrose. […] Retinal microvascular density was quantified using Image J software.\nAfter TUNEL-positive cells were counted, coverslips were soaked off, and the retinal vasculature then was stained with hematoxylin-periodic acid-Schiff. Acellular capillaries were counted in four to seven field areas in the mid retina. […] Although counting the ghosts, at least 1000 capillary cells (endothelial cells and pericytes) were counted in five mid-retinal field areas. […]"}},
  "data": [
    {"substance": "docosahexaneoic acid (DHA) [Group G2]", "values": [
      {"measurement": "Body weight", "setting": "[1]", "value": "220 ± 10", "unit": "g"},
      {"measurement": "GHb (glycated hemoglobin)", "setting": "[1]", "value": "5.85 +/− 0.03%"},
      {"measurement": "Glucose", "setting": "[1]", "value": "525 ± 10", "unit": "mg/dL"},
      {"measurement": "AGE (advanced glycation end product)", "setting": "[2]", "value": "0.026 +/− 0.004 AU/mg"},
      {"measurement": "Capillary degeneration (degenerated acellular capillaries)", "setting": "[3]", "value": "significantly inhibited"}
    ]}
  ]
}
